“And” between values parts separate entries of the source, which are not always exact repeats. Identical values can stand only once.

For data set [1], the system named is patients with either rheumatoid or psoriatic arthritis. As to the kind of experiment: Retrospective community-based study of etanercept with adjunctive neuroregulatory medications, 28-joint count (swollen and tender). Type of data set: in vivo, human. How it is done: A retrospective, community-based study assessed consecutive patients initiating biologic treatment of inflammatory arthritis. Improved outcomes were measured by a 28-joint count (swollen and tender). […] Consecutive patients with either rheumatoid or psoriatic arthritis initiated etanercept (25 mg/BIW). For partial response, neuroregulatory medications were added. Neuroregulatory medication options included bedtime dosing of either lorazepam or clonazepam, pramipexole, trazodone, other antidepressants and anticonvulsants.
Primary outcome: “≥70% reduction in 28-joint count (tender and swollen). Statistical analysis: LOCF and logistic regression (see data in FIGS. 1 and 2).

Data set [2] has as its system inflammatory joint diseases like rheumatoid arthritis (RA) and psoriatic arthritis. To be noted: etanercept in inflammatory joint diseases (RA, psoriatic arthritis); background figure; cited from earlier work.

Regarding etanercept, the “patients in whom NSAIDs were discontinued” value in data set [1] (14 of 29 on NSAIDs at baseline) was 48%. The “patients in whom other DMARDs were discontinued” value in data set [1] (22 of 28 on other DMARDs at baseline) came to 79%. The “patients in whom methotrexate was discontinued” value in data set [1] (24 of 32 on methotrexate at baseline (19.14 mg/wk)) was 75%. Moreover, the “patients in whom prednisone was discontinued” value in data set [1] (26 of 42 on prednisone at baseline (6.7 mg/d)) is reported as 62%. The “patients achieving ≥70% reduction in joint count” value in data set [1] (by BOCF, 66 patients, etanercept 25 mg BIW, neuroregulatory medications added for partial response) is 74%. For the same substance, the “patients achieving ≥70% reduction in 28-joint count (tender and swollen), primary outcome” value in data set [1] (by LOCF, 52/66 patients, etanercept 25 mg BIW, neuroregulatory medications added for partial response (36/66), p<0.001) was found to be 79%. Besides, in data set [1] (decreased from baseline 11.6±9.0, 66 patients, etanercept 25 mg BIW, neuroregulatory medications added for partial response), the “mean 28-joint count after addition of etanercept” value was 1.3 and 1.3±4.3. Further, in data set [2], the “patients achieving American College of Rheumatology 70% improvement (ACR70) response” value is “About 27%” and the “patients receiving disease activity score (DAS) remission response” value is 20.5%.

The record behind these values is US20180117148A1, “COMPOUNDS, PHARMACEUTICAL COMPOSITIONS AND METHODS OF TREATMENTS OF IMMUNE RELATED DISEASES AND DISORDERS” (priority 2016, published 2018).
